In patent publication US4948782A, “A method of promoting the growth of domestic animals with erythromycin derivative containing composition” (Kitasato Kenkyusho, priority 1987, dated 1990):

Columns and labels:
Assay type in all cases: cell-based
[1] = test system: Staphylococcus aureus ATCC 6538P; experiment: MIC, Staphylococcus aureus ATCC 6538P (SA(1)); conditions: Staphylococcus aureus ATCC 6538P; for MIC: Staphylococcus aureus, ATCC6538P, read-out: MIC SA (1)
Text: (§1) The minimum inhibitory concentrations (MIC: mcg/ml) of the erythromycin derivatives of the present invention and the control erythromycin derivative (*) as the known growth promoting agent on typical test bacteria are shown in the following Tables 1 to 5.
SA(1): Staphylococcus aureus ATCC 6538P

[2] = test system: Staphylococcus aureus FDA 209P; experiment: MIC, Staphylococcus aureus FDA 209P (SA(2)); conditions: Staphylococcus aureus, FDA209P, Staphylococcus aureus FDA 209P; read-out: MIC SA (2)
Text: as §1
SA(2): Staphylococcus aureus FDA 209P

Bacillus subtilis = experiment: MIC, Bacillus subtilis (BS); conditions: for MIC: read-out: MIC BS
Bacillus cereus IFO 3001 = experiment: MIC, Bacillus cereus IFO 3001 (BC); conditions: for MIC: Bacillus cereus, IFO3001, Bacillus cereus IFO 3001, read-out: MIC BC
Escherichia coli NIHJ = experiment: MIC, Escherichia coli NIHJ (EC)
[3] = test system: Klebsiella pneumoniae ATCC 10031; experiment: MIC, Klebsiella pneumoniae ATCC 10031 (KP); conditions: Klebsiella pneumoniae ATCC 10031; for MIC: ATCC10031, read-out: MIC KP

## CCCCN(C)C1CC(C)OC(OC2C(C)C(OC3CC(C)(OC)C(O)C(C)O3)C(C)C(=O)OC(CC)C(C)(O)C(O)C(C)C3=C(C)CC2(C)O3)C1O (stereo not shown) [Compound 11]
[1]
  MIC: > 100 µg/mL
[2]
  MIC: > 100 µg/mL
Bacillus subtilis
  MIC: > 100 µg/mL
Bacillus cereus IFO 3001
  MIC: > 100 µg/mL
Escherichia coli NIHJ
  MIC: > 100 µg/mL
[3]
  MIC: > 100 µg/mL

## CCC1OC(=O)C(C)C(OC2CC(C)(OC)C(O)C(C)O2)C(C)C(OC2OC(C)CC([N+](C)(CC)CC)C2O)C2(C)CC(C)=C(O2)C(C)C(O)C1(C)O (stereo not shown) [Compound 12]
[1]
  MIC: > 100 µg/mL
[2]
  MIC: > 100 µg/mL
Bacillus subtilis
  MIC: > 100 µg/mL
Bacillus cereus IFO 3001
  MIC: > 100 µg/mL
Escherichia coli NIHJ
  MIC: > 100 µg/mL
[3]
  MIC: > 100 µg/mL

## CCC1OC(=O)C(C)C(OC2CC(C)(OC)C(O)C(C)O2)C(C)C(OC2OC(C)CC(N3CCCC3)C2O)C2(C)CC(C)=C(O2)C(C)C(O)C1(C)O (stereo not shown) [Compound 13]
[1]
  MIC: > 100 µg/mL
[2]
  MIC: > 100 µg/mL
Bacillus subtilis
  MIC: > 100 µg/mL
Bacillus cereus IFO 3001
  MIC: > 100 µg/mL
Escherichia coli NIHJ
  MIC: > 100 µg/mL
[3]
  MIC: > 100 µg/mL

## CCC1OC(=O)C(C)C(OC2CC(C)(OC)C(O)C(C)O2)C(C)C(OC2OC(C)CC([N+]3(C)CCCC3)C2O)C2(C)CC(C)=C(O2)C(C)C(O)C1(C)O (stereo not shown) [Compound 14]
[1]
  MIC: > 100 µg/mL
[2]
  MIC: > 100 µg/mL
Bacillus subtilis
  MIC: > 100 µg/mL
Bacillus cereus IFO 3001
  MIC: > 100 µg/mL
Escherichia coli NIHJ
  MIC: > 100 µg/mL
[3]
  MIC: > 100 µg/mL

## CCC1OC(=O)C(C)C(OC2CC(C)(OC)C(O)C(C)O2)C(C)C(OC2OC(C)CC([N+](C)(C)CCO)C2O)C2(C)CC(C)=C(O2)C(C)C(O)C1(C)O (stereo not shown) [Compound 15]
[1]
  MIC: > 100 µg/mL
[2]
  MIC: > 100 µg/mL
Bacillus subtilis
  MIC: > 100 µg/mL
Bacillus cereus IFO 3001
  MIC: > 100 µg/mL
Escherichia coli NIHJ
  MIC: > 100 µg/mL
[3]
  MIC: > 100 µg/mL

## C=CC[N+](C)(C)C1CC(C)OC(OC2C(C)C(OC3CC(C)(OC)C(O)C(C)O3)C(C)C(=O)OC(CC)C(C)(O)C(O)C(C)C3=C(C)CC2(C)O3)C1O (stereo not shown) [Compound 16]
[1]
  MIC: 100 µg/mL
[2]
  MIC: > 100 µg/mL
Bacillus subtilis
  MIC: > 100 µg/mL
Bacillus cereus IFO 3001
  MIC: > 100 µg/mL
Escherichia coli NIHJ
  MIC: > 100 µg/mL
[3]
  MIC: > 100 µg/mL

## CCC1OC(=O)C(C)C(OC2CC(C)(OC)C(O)C(C)O2)C(C)C(OC2OC(C)CC([N+](C)(C)Cc3ccccc3)C2O)C2(C)CC(C)=C(O2)C(C)C(O)C1(C)O (stereo not shown) [Compound 17]
[1]
  MIC: 100 µg/mL
[2]
  MIC: 100 µg/mL
Bacillus subtilis
  MIC: 50 µg/mL
Bacillus cereus IFO 3001
  MIC: 100 µg/mL
Escherichia coli NIHJ
  MIC: > 100 µg/mL
[3]
  MIC: > 100 µg/mL

## CCC1OC(=O)C(C)C(OC2CC(C)(OC)C(O)C(C)O2)C(C)C(OC2OC(C)CC([N+](C)(C)CC)C2O)C2(C)CC(C)=C(O2)C(C)C(OS(C)(=O)=O)C1(C)O (stereo not shown) [Compound 18]
[1]
  MIC: > 100 µg/mL
[2]
  MIC: > 100 µg/mL
Bacillus subtilis
  MIC: > 100 µg/mL
Bacillus cereus IFO 3001
  MIC: > 100 µg/mL
Escherichia coli NIHJ
  MIC: > 100 µg/mL
[3]
  MIC: > 100 µg/mL

## CCC1OC(=O)C(C)C(OC2CC(C)(OC)C(O)C(C)O2)C(C)C(OC2OC(C)CC([N+](C)(C)CC)C2O)C2(C)CC(C)=C(O2)C(C)C(O)C1(C)O (stereo not shown) [Compound 19]
[1]
  MIC SA (1): > 100 µg/mL
Bacillus subtilis
  MIC BS: > 100 µg/mL
Bacillus cereus IFO 3001; Bacillus cereus IFO 3001
  MIC BC: > 100 µg/mL
Escherichia coli NIHJ
  MIC EC: > 100 µg/mL
[3]
  MIC KP: > 100 µg/mL

## CCC1OC(=O)C(C)C(OC2CC(C)(OC)C(O)C(C)O2)C(C)C(OC2OC(C)CC(N(CC)CC)C2O)C2(C)CC(C)=C(O2)C(C)C(O)C1(C)O (stereo not shown) [Compound 20]
[1]
  MIC: > 100 µg/mL
[2]
  MIC: > 100 µg/mL
Bacillus subtilis
  MIC: > 100 µg/mL
Bacillus cereus IFO 3001
  MIC: > 100 µg/mL
Escherichia coli NIHJ
  MIC: > 100 µg/mL
[3]
  MIC: > 100 µg/mL

## CCNC1CC(C)OC(OC2C(C)C(OC3CC(C)(OC)C(O)C(C)O3)C(C)C(=O)OC(CC)C(C)(O)C(O)C(C)C3=C(C)CC2(C)O3)C1O (stereo not shown) [Compound 21]
[1]
  MIC: > 100 µg/mL
[2]
  MIC: > 100 µg/mL
Bacillus subtilis
  MIC: > 100 µg/mL
Bacillus cereus IFO 3001
  MIC: > 100 µg/mL
Escherichia coli NIHJ
  MIC: > 100 µg/mL
[3]
  MIC: > 100 µg/mL

## CCC1OC(=O)C(C)C(OC2CC(C)(OC)C(O)C(C)O2)C(C)C(OC2OC(C)CC(N3CCCCC3)C2O)C2(C)CC(C)=C(O2)C(C)C(O)C1(C)O (stereo not shown) [Compound 22]
[1]
  MIC: > 100 µg/mL
[2]
  MIC: > 100 µg/mL
Bacillus subtilis
  MIC: > 100 µg/mL
Bacillus cereus IFO 3001
  MIC: > 100 µg/mL
Escherichia coli NIHJ
  MIC: > 100 µg/mL
[3]
  MIC: > 100 µg/mL

## CCC1OC(=O)C(C)C(OC2CC(C)(OC)C(O)C(C)O2)C(C)C(OC2OC(C)CC([N+](CC)(CC)CC)C2O)C2(C)CC(C)=C(O2)C(C)C(O)C1(C)O (stereo not shown) [Compound 23]
[1]
  MIC: > 100 µg/mL
[2]
  MIC: > 100 µg/mL
Bacillus subtilis
  MIC: > 100 µg/mL
Bacillus cereus IFO 3001
  MIC: > 100 µg/mL
Escherichia coli NIHJ
  MIC: > 100 µg/mL
[3]
  MIC: > 100 µg/mL

## CCC1OC(=O)C(C)C(OC2CC(C)(OC)C(O)C(C)O2)C(C)C(OC2OC(C)CC([N+](C)(C)CC3CC3)C2O)C2(C)CC(C)=C(O2)C(C)C(O)C1(C)O (stereo not shown) [Compound 50]
[1]
  MIC: 100 µg/mL
[2]
  MIC: > 100 µg/mL
Bacillus subtilis
  MIC: > 100 µg/mL
Escherichia coli NIHJ
  MIC: > 100 µg/mL
[3]
  MIC: > 100 µg/mL
